Consider four compounds from patent publication US20180055032A1, “ODORS FOR PSYLLID TRAPPING, REPELLING AND CONTROL” (The Regents of the University of California, priority 2011, published 2018).

SMILES strings stand for the structures. Read-outs that look alike come from different tables or passages of the source.

Holding throughout (format): cell-based, Diaphorina citri
Assay [1] concerns neuron 2A (rhinarial plate on flagellomere 2). The assay is described as follows: single-sensillum electrophysiology, odor response of neuron 2A. Also: key: 0, no response; +, >50 spikes/second; ++, >100 spikes/second; +++, >150 spikes/second. The conditions noted are these: Table 1; odor diluted to 1%, 50 μL in cartridge.
For assay [2], the system named is neuron 2B (rhinarial plate on flagellomere 2). The assay is described as follows: single-sensillum electrophysiology, odor response of neuron 2B. The conditions noted are these: Table 1; odor diluted to 1%, 50 μL in cartridge.
The test system of assay [3] is neuron 2C (rhinarial plate on flagellomere 2). The assay can be described thus: single-sensillum electrophysiology, odor response of neuron 2C. Particulars: Table 1; odor diluted to 1%, 50 μL in cartridge.
Assay [4] relates to neuron 4A (rhinarial plate on flagellomere 4). The assay can be described thus: single-sensillum electrophysiology, odor response of neuron 4A. The conditions noted are these: Table 1; odor diluted to 1%, 50 μL in cartridge.
Assay [5] concerns neuron 4B (rhinarial plate on flagellomere 4).
Assay [6] relates to neuron 4C (rhinarial plate on flagellomere 4). The assay can be described thus: single-sensillum electrophysiology, odor response of neuron 4C. Particulars: Table 1; odor diluted to 1%, 50 μL in cartridge.
In assay [7] the test system is neuron 6A (rhinarial plate on flagellomere 6). The assay is described as follows: single-sensillum electrophysiology, odor response of neuron 6A. The conditions noted are these: Table 1; odor diluted to 1%, 50 μL in cartridge.
Assay [8] relates to neuron 6B (rhinarial plate on flagellomere 6). The assay is described as follows: single-sensillum electrophysiology, odor response of neuron 6B. Particulars: Table 1; odor diluted to 1%, 50 μL in cartridge.
Assay [9] relates to neuron 6C (rhinarial plate on flagellomere 6). The assay can be described thus: single-sensillum electrophysiology, odor response of neuron 6C. Particulars: Table 1; odor diluted to 1%, 50 μL in cartridge.
The test system of assay [10] is neuron 7A (rhinarial plate on flagellomere 7). The assay is described as follows: single-sensillum electrophysiology, odor response of neuron 7A. Also: key: 0, no response; +, >50 spikes/second; ++, >100 spikes/second; +++, >150 spikes/second. Particulars: Table 1; odor diluted to 1%, 50 μL in cartridge.
Assay [11] deals with neuron 7B (rhinarial plate on flagellomere 7).
Assay [12] deals with neuron 7C (rhinarial plate on flagellomere 7). The assay is described as follows: single-sensillum electrophysiology, odor response of neuron 7C. Particulars: Table 1; odor diluted to 1%, 50 μL in cartridge.
Setting [13] is: Table 1, odor diluted to 1%, 50 μL in cartridge.

Regarding `O=CCc1ccccc1` [phenylacetaldehyde], in assay [1], the “odor response (frequency of action potentials during stimulus minus baseline), 2A” value is reported as 0. Besides, the “odor response (frequency of action potentials during stimulus minus baseline), 2B” value in [2] came out at 0. For the same compound, the “odor response (frequency of action potentials during stimulus minus baseline), 2C” value in assay [3] was 0. Besides, in assay [4], the “odor response (frequency of action potentials during stimulus minus baseline), 4A” value turned out to be 0. Also, in [5] (setting [13]), the “odor response (frequency of action potentials during stimulus minus baseline), 4B” value is “+ (+, >50 spikes/second)”. Besides, the “odor response (frequency of action potentials during stimulus minus baseline), 4C” value in assay [6] worked out at 0. For the same compound, the “odor response (frequency of action potentials during stimulus minus baseline), 6A” value in assay [7] was 0. Further, the “odor response (frequency of action potentials during stimulus minus baseline), 6B” value in [8] is listed as “+ (+, >50 spikes/second)”. For the same compound, the “odor response (frequency of action potentials during stimulus minus baseline), 6C” value in assay [9] came to 0. Further, the “odor response (frequency of action potentials during stimulus minus baseline), 7A” value in assay [10] is 0. For the same compound, the “odor response (frequency of action potentials during stimulus minus baseline), 7B” value in [11] (setting [13]) is 0. Moreover, the “odor response (frequency of action potentials during stimulus minus baseline), 7C” value in [12] was 0.
Turning to `CC1=CCC(=C(C)C)CC1` [terpinolene], the “odor response (frequency of action potentials during stimulus minus baseline), 2A” value in [1] turned out to be 0. Also, the “odor response (frequency of action potentials during stimulus minus baseline), 2B” value in [2] is on record as 0. Also, the “odor response (frequency of action potentials during stimulus minus baseline), 2C” value in assay [3] was determined as 0. The “odor response (frequency of action potentials during stimulus minus baseline), 4A” value in [4] turned out to be 0. In addition, the “odor response (frequency of action potentials during stimulus minus baseline), 4B” value in [5] (setting [13]) is listed as “+ (+, >50 spikes/second)”. Further, in assay [6], the “odor response (frequency of action potentials during stimulus minus baseline), 4C” value turned out to be 0. The “odor response (frequency of action potentials during stimulus minus baseline), 6A” value in [7] was 0. Besides, in [8], the “odor response (frequency of action potentials during stimulus minus baseline), 6B” value is recorded as “+ (+, >50 spikes/second)”. The “odor response (frequency of action potentials during stimulus minus baseline), 6C” value in assay [9] amounted to 0. Further, the “odor response (frequency of action potentials during stimulus minus baseline), 7A” value in assay [10] is 0. Also, the “odor response (frequency of action potentials during stimulus minus baseline), 7B” value in [11] (setting [13]) was determined as 0. Further, the “odor response (frequency of action potentials during stimulus minus baseline), 7C” value in assay [12] came to 0.
`O` [water]: the “odor response (frequency of action potentials during stimulus minus baseline), 2A” value in assay [1] is 0. Besides, in [2], the “odor response (frequency of action potentials during stimulus minus baseline), 2B” value was determined as 0. Moreover, the “odor response (frequency of action potentials during stimulus minus baseline), 2C” value in [3] worked out at 0. In addition, in assay [4], the “odor response (frequency of action potentials during stimulus minus baseline), 4A” value came out at 0. Also, in [5], the “odor response (frequency of action potentials during stimulus minus baseline), 4B” value was found to be 0. The “odor response (frequency of action potentials during stimulus minus baseline), 4C” value in assay [6] is recorded as “+ (+, >50 spikes/second)”. Further, the “odor response (frequency of action potentials during stimulus minus baseline), 6A” value in assay [7] is 0. In addition, the “odor response (frequency of action potentials during stimulus minus baseline), 6B” value in assay [8] came out at 0. In addition, the “odor response (frequency of action potentials during stimulus minus baseline), 6C” value in assay [9] is reported as “+ (+, >50 spikes/second)”. The “odor response (frequency of action potentials during stimulus minus baseline), 7A” value in assay [10] turned out to be 0. For the same compound, the “odor response (frequency of action potentials during stimulus minus baseline), 7B” value in assay [11] is on record as 0. In addition, the “odor response (frequency of action potentials during stimulus minus baseline), 7C” value in assay [12] came out at 0.
In the case of `C/C1=C\CC/C(C)=C/CC(C)(C)/C=C/C1` [α-humulene], in assay [1], the “odor response (frequency of action potentials during stimulus minus baseline), 2A” value amounted to 0. Moreover, the “odor response (frequency of action potentials during stimulus minus baseline), 2B” value in assay [2] is “++ (++, >100 spikes/second)”. For the same compound, the “odor response (frequency of action potentials during stimulus minus baseline), 2C” value in assay [3] is reported as 0. Further, in assay [4], the “odor response (frequency of action potentials during stimulus minus baseline), 4A” value is given as 0. Besides, the “odor response (frequency of action potentials during stimulus minus baseline), 4B” value in [5] (setting [13]) is 0. Also, in assay [6], the “odor response (frequency of action potentials during stimulus minus baseline), 4C” value came out at 0. Also, the “odor response (frequency of action potentials during stimulus minus baseline), 6A” value in assay [7] is given as 0. Also, the “odor response (frequency of action potentials during stimulus minus baseline), 6B” value in assay [8] is on record as 0. The “odor response (frequency of action potentials during stimulus minus baseline), 6C” value in assay [9] came out at 0. In addition, in assay [10], the “odor response (frequency of action potentials during stimulus minus baseline), 7A” value is 0. In assay [11] (setting [13]), the “odor response (frequency of action potentials during stimulus minus baseline), 7B” value is given as “++ (++, >100 spikes/second)”. Besides, the “odor response (frequency of action potentials during stimulus minus baseline), 7C” value in [12] is reported as 0.
